± gives the uncertainty stated by the source.
Assay: xn = mol fraction of the nth substance listed
Details: 101 kPa; for electrical conductivity: 293.2 K

Work on CC[N+](CC)=C(N(C)C)N(C)C.O=S(=O)([N-]S(=O)(=O)C(F)(F)F)C(F)(F)F + CCO yielded a viscosity (293.15 K, x1 = 0.0004697) of 1.188 ± 0.072 mPa·s, a viscosity (293.15 K, x1 = 0.0008976) of 1.203 ± 0.073 mPa·s and a viscosity (293.15 K, x1 = 0.002294) of 1.228 ± 0.074 mPa·s. The viscosity (293.15 K, x1 = 0.004714) was 1.266 ± 0.077 mPa·s, the viscosity (293.15 K, x1 = 0.009053) was 1.318 ± 0.08 mPa·s and the viscosity (293.15 K, x1 = 0.018) was 1.438 ± 0.087 mPa·s. It also gave a viscosity (293.15 K, x1 = 0.02647) of 1.561 ± 0.094 mPa·s, a viscosity (293.15 K, x1 = 0.03521) of 1.7 ± 0.1 mPa·s and a viscosity (293.15 K, x1 = 0.04396) of 1.85 ± 0.11 mPa·s. For the same compound, the viscosity (293.15 K, x1 = 0.05173) was 1.99 ± 0.12 mPa·s, the viscosity (293.15 K, x1 = 0.06055) was 2.15 ± 0.13 mPa·s and the viscosity (293.15 K, x1 = 0.07263) was 2.38 ± 0.15 mPa·s. For the same compound, the viscosity (293.15 K, x1 = 0.08417) was 2.61 ± 0.16 mPa·s, the viscosity (293.15 K, x1 = 0.1028) was 2.97 ± 0.18 mPa·s and the viscosity (293.15 K, x1 = 0.1216) was 3.38 ± 0.21 mPa·s. The electrical conductivity (x1 = 0.0004697) was 0.0209 ± 0.0005 S/m, the electrical conductivity (x1 = 0.0008976) was 0.0341 ± 0.0007 S/m and the electrical conductivity (x1 = 0.002294) was 0.0657 ± 0.0014 S/m. It also gave an electrical conductivity (x1 = 0.004714) of 0.109 ± 0.002 S/m, an electrical conductivity (x1 = 0.009053) of 0.167 ± 0.004 S/m and an electrical conductivity (x1 = 0.018) of 0.278 ± 0.006 S/m. For the same compound, the electrical conductivity (x1 = 0.02647) was 0.393 ± 0.009 S/m, the electrical conductivity (x1 = 0.03521) was 0.477 ± 0.01 S/m and the electrical conductivity (x1 = 0.04396) was 0.552 ± 0.012 S/m. The electrical conductivity (x1 = 0.05173) was 0.591 ± 0.012 S/m, the electrical conductivity (x1 = 0.06055) was 0.661 ± 0.014 S/m and the electrical conductivity (x1 = 0.07263) was 0.716 ± 0.015 S/m. The electrical conductivity (x1 = 0.08417) was 0.756 ± 0.016 S/m, the electrical conductivity (x1 = 0.1028) was 0.848 ± 0.018 S/m and the electrical conductivity (x1 = 0.1216) was 0.904 ± 0.019 S/m. It also gave a viscosity (298.15 K, x1 = 0.0004697) of 1.083 ± 0.065 mPa·s, a viscosity (298.15 K, x1 = 0.0008976) of 1.096 ± 0.066 mPa·s and a viscosity (298.15 K, x1 = 0.002294) of 1.119 ± 0.068 mPa·s. It also gave a viscosity (298.15 K, x1 = 0.004714) of 1.146 ± 0.069 mPa·s, a viscosity (298.15 K, x1 = 0.009053) of 1.197 ± 0.072 mPa·s and a viscosity (298.15 K, x1 = 0.018) of 1.304 ± 0.079 mPa·s. It also gave a viscosity (298.15 K, x1 = 0.02647) of 1.414 ± 0.086 mPa·s, a viscosity (298.15 K, x1 = 0.03521) of 1.537 ± 0.093 mPa·s and a viscosity (298.15 K, x1 = 0.04396) of 1.66 ± 0.1 mPa·s. For the same compound, the viscosity (298.15 K, x1 = 0.05173) was 1.79 ± 0.11 mPa·s, the viscosity (298.15 K, x1 = 0.06055) was 1.92 ± 0.12 mPa·s and the viscosity (298.15 K, x1 = 0.07263) was 2.12 ± 0.13 mPa·s. The viscosity (298.15 K, x1 = 0.08417) was 2.32 ± 0.14 mPa·s, the viscosity (298.15 K, x1 = 0.1028) was 2.65 ± 0.16 mPa·s and the viscosity (298.15 K, x1 = 0.1216) was 3.01 ± 0.18 mPa·s. For the same compound, the viscosity (303.15 K, x1 = 0.0004697) was 0.985 ± 0.06 mPa·s, the viscosity (303.15 K, x1 = 0.0008976) was 0.996 ± 0.06 mPa·s and the viscosity (303.15 K, x1 = 0.002294) was 1.016 ± 0.061 mPa·s. It also gave a viscosity (303.15 K, x1 = 0.004714) of 1.04 ± 0.063 mPa·s, a viscosity (303.15 K, x1 = 0.009053) of 1.088 ± 0.066 mPa·s and a viscosity (303.15 K, x1 = 0.018) of 1.185 ± 0.072 mPa·s. The viscosity (303.15 K, x1 = 0.02647) was 1.282 ± 0.078 mPa·s, the viscosity (303.15 K, x1 = 0.03521) was 1.394 ± 0.084 mPa·s and the viscosity (303.15 K, x1 = 0.04396) was 1.502 ± 0.091 mPa·s. The viscosity (303.15 K, x1 = 0.05173) was 1.612 ± 0.098 mPa·s, the viscosity (303.15 K, x1 = 0.06055) was 1.73 ± 0.11 mPa·s and the viscosity (303.15 K, x1 = 0.07263) was 1.91 ± 0.12 mPa·s. For the same compound, the viscosity (303.15 K, x1 = 0.08417) was 2.08 ± 0.13 mPa·s, the viscosity (303.15 K, x1 = 0.1028) was 2.37 ± 0.14 mPa·s and the viscosity (303.15 K, x1 = 0.1216) was 2.69 ± 0.16 mPa·s. The viscosity (308.15 K, x1 = 0.0004697) was 0.895 ± 0.054 mPa·s, the viscosity (308.15 K, x1 = 0.0008976) was 0.905 ± 0.055 mPa·s and the viscosity (308.15 K, x1 = 0.002294) was 0.922 ± 0.056 mPa·s. For the same compound, the viscosity (308.15 K, x1 = 0.004714) was 0.945 ± 0.057 mPa·s, the viscosity (308.15 K, x1 = 0.009053) was 0.987 ± 0.06 mPa·s and the viscosity (308.15 K, x1 = 0.018) was 1.075 ± 0.065 mPa·s. For the same compound, the viscosity (308.15 K, x1 = 0.02647) was 1.162 ± 0.07 mPa·s, the viscosity (308.15 K, x1 = 0.03521) was 1.263 ± 0.077 mPa·s and the viscosity (308.15 K, x1 = 0.04396) was 1.363 ± 0.083 mPa·s. For the same compound, the viscosity (308.15 K, x1 = 0.05173) was 1.459 ± 0.089 mPa·s, the viscosity (308.15 K, x1 = 0.06055) was 1.564 ± 0.095 mPa·s and the viscosity (308.15 K, x1 = 0.07263) was 1.72 ± 0.1 mPa·s. The viscosity (308.15 K, x1 = 0.08417) was 1.87 ± 0.11 mPa·s, the viscosity (308.15 K, x1 = 0.1028) was 2.13 ± 0.13 mPa·s and the viscosity (308.15 K, x1 = 0.1216) was 2.42 ± 0.15 mPa·s. The viscosity (313.15 K, x1 = 0.0004697) was 0.825 ± 0.05 mPa·s, the viscosity (313.15 K, x1 = 0.0008976) was 0.834 ± 0.05 mPa·s and the viscosity (313.15 K, x1 = 0.002294) was 0.849 ± 0.051 mPa·s. The viscosity (313.15 K, x1 = 0.004714) was 0.871 ± 0.053 mPa·s, the viscosity (313.15 K, x1 = 0.009053) was 0.909 ± 0.055 mPa·s and the viscosity (313.15 K, x1 = 0.018) was 0.989 ± 0.06 mPa·s. It also gave a viscosity (313.15 K, x1 = 0.02647) of 1.069 ± 0.065 mPa·s, a viscosity (313.15 K, x1 = 0.03521) of 1.156 ± 0.07 mPa·s and a viscosity (313.15 K, x1 = 0.04396) of 1.253 ± 0.076 mPa·s. It also gave a viscosity (313.15 K, x1 = 0.05173) of 1.327 ± 0.08 mPa·s, a viscosity (313.15 K, x1 = 0.06055) of 1.419 ± 0.086 mPa·s and a viscosity (313.15 K, x1 = 0.07263) of 1.557 ± 0.095 mPa·s. For the same compound, the viscosity (313.15 K, x1 = 0.08417) was 1.69 ± 0.1 mPa·s, the viscosity (313.15 K, x1 = 0.1028) was 1.92 ± 0.12 mPa·s and the viscosity (313.15 K, x1 = 0.1216) was 2.18 ± 0.13 mPa·s. The viscosity (318.15 K, x1 = 0.0004697) was 0.758 ± 0.046 mPa·s, the viscosity (318.15 K, x1 = 0.0008976) was 0.766 ± 0.046 mPa·s and the viscosity (318.15 K, x1 = 0.002294) was 0.78 ± 0.047 mPa·s. For the same compound, the viscosity (318.15 K, x1 = 0.004714) was 0.8 ± 0.048 mPa·s, the viscosity (318.15 K, x1 = 0.009053) was 0.835 ± 0.05 mPa·s and the viscosity (318.15 K, x1 = 0.018) was 0.909 ± 0.055 mPa·s. The viscosity (318.15 K, x1 = 0.02647) was 0.981 ± 0.059 mPa·s, the viscosity (318.15 K, x1 = 0.03521) was 1.061 ± 0.064 mPa·s and the viscosity (318.15 K, x1 = 0.04396) was 1.149 ± 0.07 mPa·s. For the same compound, the viscosity (318.15 K, x1 = 0.05173) was 1.218 ± 0.074 mPa·s, the viscosity (318.15 K, x1 = 0.06055) was 1.304 ± 0.079 mPa·s and the viscosity (318.15 K, x1 = 0.07263) was 1.423 ± 0.086 mPa·s. For the same compound, the viscosity (318.15 K, x1 = 0.08417) was 1.542 ± 0.094 mPa·s, the viscosity (318.15 K, x1 = 0.1028) was 1.75 ± 0.11 mPa·s and the viscosity (318.15 K, x1 = 0.1216) was 1.96 ± 0.12 mPa·s. The viscosity (323.15 K, x1 = 0.0004697) was 0.701 ± 0.042 mPa·s, the viscosity (323.15 K, x1 = 0.0008976) was 0.708 ± 0.043 mPa·s and the viscosity (323.15 K, x1 = 0.002294) was 0.72 ± 0.044 mPa·s. The viscosity (323.15 K, x1 = 0.004714) was 0.738 ± 0.045 mPa·s, the viscosity (323.15 K, x1 = 0.009053) was 0.772 ± 0.047 mPa·s and the viscosity (323.15 K, x1 = 0.018) was 0.839 ± 0.051 mPa·s. It also gave a viscosity (323.15 K, x1 = 0.02647) of 0.904 ± 0.055 mPa·s, a viscosity (323.15 K, x1 = 0.03521) of 0.98 ± 0.059 mPa·s and a viscosity (323.15 K, x1 = 0.04396) of 1.06 ± 0.064 mPa·s. It also gave a viscosity (323.15 K, x1 = 0.05173) of 1.121 ± 0.068 mPa·s, a viscosity (323.15 K, x1 = 0.06055) of 1.199 ± 0.073 mPa·s and a viscosity (323.15 K, x1 = 0.07263) of 1.306 ± 0.079 mPa·s. For the same compound, the viscosity (323.15 K, x1 = 0.08417) was 1.412 ± 0.086 mPa·s, the viscosity (323.15 K, x1 = 0.1028) was 1.592 ± 0.097 mPa·s and the viscosity (323.15 K, x1 = 0.1216) was 1.77 ± 0.11 mPa·s.

Reference: the CheMixHub ionic liquid set
